Experimental data as given in PubChem BioAssay AID1963865 (Molecular Pharmacology Branch, DTP, NCI, 2024).

Tested on: KRAS PDC multicell spheroid viability
Experiment: Anticancer human tumor 825966-067-R-J1-PDC patient-derived colon carcinoma cell line growth inhibition [KRAS2]
Conditions: for IC50: curve of first compound; for viability, T/C: stronger effect = lower value
Summary of the method: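 KRAS-mutant tumor cells were grown as spheroids with HUVEC endothelial cells and human MSCs as stroma. Targeted agents were tested alone and with KRAS pathway inhibitors. Doses started at or near clinical Cmax, or 10 microM, descending half-log.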

[1] = second compound 0.1 µM, first compound 0.000316 µM
[2] = second compound 0.1 µM, first compound 0.001 µM
[3] = second compound 0.1 µM, first compound 0.00316 µM
[4] = second compound 0.1 µM, first compound 0.01 µM
[5] = second compound 0.1 µM, first compound 0.0316 µM
[6] = second compound 0.1 µM, first compound 0.1 µM
[7] = second compound 0.316 µM, first compound 0.000316 µM
[8] = second compound 0.316 µM, first compound 0.001 µM
[9] = second compound 0.316 µM, first compound 0.00316 µM
[10] = second compound 0.316 µM, first compound 0.01 µM
[11] = second compound 0.316 µM, first compound 0.0316 µM
[12] = second compound 0.316 µM, first compound 0.1 µM
[13] = second compound 1 µM, first compound 0.000316 µM
[14] = second compound 1 µM, first compound 0.001 µM
[15] = second compound 1 µM, first compound 0.00316 µM
[16] = second compound 1 µM, first compound 0.01 µM
[17] = second compound 1 µM, first compound 0.0316 µM
[18] = second compound 1 µM, first compound 0.1 µM
[19] = second compound 3.16 µM, first compound 0.000316 µM
[20] = second compound 3.16 µM, first compound 0.001 µM
[21] = second compound 3.16 µM, first compound 0.00316 µM
[22] = second compound 3.16 µM, first compound 0.01 µM
[23] = second compound 3.16 µM, first compound 0.0316 µM
[24] = second compound 3.16 µM, first compound 0.1 µM
[25] = second compound 10 µM, first compound 0.000316 µM
[26] = second compound 10 µM, first compound 0.001 µM
[27] = second compound 10 µM, first compound 0.00316 µM
[28] = second compound 10 µM, first compound 0.01 µM
[29] = second compound 10 µM, first compound 0.0316 µM
[30] = second compound 10 µM, first compound 0.1 µM
[31] = second compound 0.1 µM, first compound 0.316 µM
[32] = second compound 0.1 µM, first compound 1 µM
[33] = second compound 0.1 µM, first compound 3.16 µM
[34] = second compound 0.1 µM, first compound 10 µM
[35] = second compound 0.316 µM, first compound 0.316 µM
[36] = second compound 0.316 µM, first compound 1 µM
[37] = second compound 0.316 µM, first compound 3.16 µM
[38] = second compound 0.316 µM, first compound 10 µM
[39] = second compound 1 µM, first compound 0.316 µM
[40] = second compound 1 µM, first compound 1 µM
[41] = second compound 1 µM, first compound 3.16 µM
[42] = second compound 1 µM, first compound 10 µM
[43] = second compound 3.16 µM, first compound 0.316 µM
[44] = second compound 3.16 µM, first compound 1 µM
[45] = second compound 3.16 µM, first compound 3.16 µM
[46] = second compound 3.16 µM, first compound 10 µM
[47] = second compound 10 µM, first compound 0.316 µM
[48] = second compound 10 µM, first compound 1 µM
[49] = second compound 10 µM, first compound 3.16 µM
[50] = second compound 10 µM, first compound 10 µM
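Note: spheroids exposed to compounds for 7 days.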
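Throughout, for viability, T/C: 100% = DMSO vehicle control viability.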

Row | Structure (SMILES) | IC50 (second compound 0.1 µM) [nM] | IC50 (second compound 0.316 µM) [nM] | IC50 (second compound 1 µM) [nM] | IC50 (second compound 3.16 µM) [nM] | IC50 (second compound 10 µM) [nM] | viability, T/C [1] [%] | viability, T/C [2] [%] | viability, T/C [3] [%] | viability, T/C [4] [%] | viability, T/C [5] [%] | viability, T/C [6] [%] | viability, T/C [7] [%] | viability, T/C [11] [%] | viability, T/C [12] [%] | viability, T/C [17] [%] | viability, T/C [18] [%] | viability, T/C [23] [%] | viability, T/C [24] [%] | viability, T/C [29] [%] | viability, T/C [30] [%] | other results
1 | CC(C)n1nc(-c2ccc3oc(N)nc3c2)c2c(N)ncnc21 + CNCc1ccccc1-c1csc(C(C)Nc2nc(C)nc3cc(OC)c(OC)cc23)c1 | > 100 | > 100 | > 100 | 1.92 | < 0.316 | 126 | 113 | 159 | 185 | 128 | 154 | 117 | 142 | 109 | 76.4 | 84.2 | 12.4 | 2.02 | 0.41 | 0.41 | viability, T/C [8]: 150%; viability, T/C [9]: 172%; viability, T/C [10]: 136%; viability, T/C [13]: 131%; viability, T/C [14]: 135%; viability, T/C [15]: 156%; viability, T/C [16]: 132%; viability, T/C [19]: 66.2%; viability, T/C [20]: 105%; viability, T/C [21]: 22.9%; viability, T/C [22]: 1.2%; viability, T/C [25]: 0.21%; viability, T/C [26]: 0.64%; viability, T/C [27]: 1.75%; viability, T/C [28]: 0.23%
2 | CC1(C)CCC(CN2CCN(c3ccc(C(=O)NS(=O)(=O)c4ccc(NCC5CCOCC5)c([N+](=O)[O-])c4)c(Oc4cnc5[nH]ccc5c4)c3)CC2)=C(c2ccc(Cl)cc2)C1 + CNCc1ccccc1-c1csc(C(C)Nc2nc(C)nc3cc(OC)c(OC)cc23)c1 | 2180 | 2190 | 2050 | 1550 | < 31.6 |  |  |  |  | 91.4 | 106 |  | 94.7 | 101 | 88.5 | 96.7 | 45.1 | 98.6 | 0.25 | 0.32 | viability, T/C [31]: 97.5%; viability, T/C [32]: 92.9%; viability, T/C [33]: 29.4%; viability, T/C [34]: 4.56%; viability, T/C [35]: 95.2%; viability, T/C [36]: 104%; viability, T/C [37]: 27.4%; viability, T/C [38]: 2.36%; viability, T/C [39]: 126%; viability, T/C [40]: 132%; viability, T/C [41]: 13.6%; viability, T/C [42]: 2.22%; viability, T/C [43]: 64.8%; viability, T/C [44]: 102%; viability, T/C [45]: 5.49%; viability, T/C [46]: 0.23%; viability, T/C [47]: 1.83%; viability, T/C [48]: 0.35%; viability, T/C [49]: 0.66%; viability, T/C [50]: 0.23%
3 | COc1cc2nccc(Oc3ccc(NC(=O)C4(C(=O)Nc5ccc(F)cc5)CC4)cc3)c2cc1OC + CNCc1ccccc1-c1csc(C(C)Nc2nc(C)nc3cc(OC)c(OC)cc23)c1 | 1740 | 1730 | 1880 | 192 | < 31.6 |  |  |  |  | 86.2 | 124 |  | 74.8 | 98.7 | 97.9 | 117 | 113 | 59.8 | 0.28 | 0.32 | viability, T/C [31]: 94%; viability, T/C [32]: 91.2%; viability, T/C [33]: 4.92%; viability, T/C [34]: 6.89%; viability, T/C [35]: 94%; viability, T/C [36]: 97.8%; viability, T/C [37]: 3.71%; viability, T/C [38]: 4.44%; viability, T/C [39]: 104%; viability, T/C [40]: 122%; viability, T/C [41]: 0.94%; viability, T/C [42]: 0.47%; viability, T/C [43]: 53.4%; viability, T/C [44]: 1.03%; viability, T/C [45]: 0.6%; viability, T/C [46]: 0.24%; viability, T/C [47]: 0.24%; viability, T/C [48]: 0.18%; viability, T/C [49]: 0.17%; viability, T/C [50]: 0.29%
4 | Cn1ncnc1[C@H]1c2n[nH]c(=O)c3cc(F)cc(c23)N[C@@H]1c1ccc(F)cc1 + CNCc1ccccc1-c1csc(C(C)Nc2nc(C)nc3cc(OC)c(OC)cc23)c1 | > 100 | > 100 | > 100 | 22.4 | < 0.316 | 77 | 84.2 | 76.4 | 64.5 | 58.2 | 58.3 | 99.9 | 57.3 | 62.2 | 70 | 86 | 37.6 | 3.27 | 0.22 | 0.19 | viability, T/C [8]: 75.2%; viability, T/C [9]: 62.5%; viability, T/C [10]: 57.9%; viability, T/C [13]: 85.9%; viability, T/C [14]: 97.9%; viability, T/C [15]: 72%; viability, T/C [16]: 73.5%; viability, T/C [19]: 87.3%; viability, T/C [20]: 78.7%; viability, T/C [21]: 59.9%; viability, T/C [22]: 89.3%; viability, T/C [25]: 0.24%; viability, T/C [26]: 0.26%; viability, T/C [27]: 0.49%; viability, T/C [28]: 0.28%
